Source: US6379400B1, “Dye compositions and methods of dyeing keratin fibers” (Wella Aktiengesellschaft, priority 1998, dated 2002)

| melting point | SMILES |
| --- | --- |
| 97 to 100 °C | COCCNc1ccc([N+](=O)[O-])cc1C [Example 2, N-(2-methoxyethyl)-2-methyl-4-nitrophenylamine] |
| 85 to 87 °C | COCCNc1ccc([N+](=O)[O-])cc1 [Example 1, N-(2-methoxyethyl)-4-nitro-phenylamine] |
